{"source": "the supplement of paper PMC10307832", "assay_in_all_cases": "relative viability (nuclei count vs DMSO), 5 days (fraction); higher = more cells survive", "key": {"ABC-1": {"system": "ABC-1", "in_short": "(§1)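 After 5 days of treatment, lung cancer cells in 1536-well plates were fixed and stained in a single step (final 0.05% Triton X-100, 1% formaldehyde, 1 ug/ml Hoechst) and their nuclei counted on 4× images. Treatment had been applied by pin tool the day after seeding as one drug alone or as a fixed anchor-drug dose with five library-drug doses (not always all listed) in √10 steps. Relative viability is the nuclei count of treated wells divided by that of vehicle wells, and values are medians of duplicate plates.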"}, "COR-L23": {"system": "COR-L23", "in_short": "as §1"}, "ChaGo-K-1": {"system": "ChaGo-K-1", "in_short": "as §1"}, "EMC-BAC-2": {"system": "EMC-BAC-2", "in_short": "as §1"}, "HARA": {"system": "HARA", "in_short": "as §1"}, "HCC-15": {"system": "HCC-15", "in_short": "as §1"}, "HCC-366": {"system": "HCC-366", "in_short": "as §1"}, "HCC-78": {"system": "HCC-78", "in_short": "as §1"}, "HOP-62": {"system": "HOP-62", "in_short": "as §1"}, "LC-2-ad": {"system": "LC-2-ad", "in_short": "as §1"}, "NCI-H1993": {"system": "NCI-H1993", "in_short": "as §1"}, "NCI-H2023": {"system": "NCI-H2023", "in_short": "as §1"}, "NCI-H2126": {"system": "NCI-H2126", "in_short": "as §1"}, "NCI-H2228": {"system": "NCI-H2228", "in_short": "as §1"}, "NCI-H23": {"system": "NCI-H23", "in_short": "as §1"}, "NCI-H2405": {"system": "NCI-H2405", "in_short": "as §1"}, "NCI-H838": {"system": "NCI-H838", "in_short": "as §1"}, "SK-LU-1": {"system": "SK-LU-1", "in_short": "as §1"}}, "data": [{"compound": "O=c1cc(N2CCOCC2)oc2c(-c3cccc4c3sc3ccccc34)cccc12", "note": "+ CC(C)C[C@H](NC(=O)[C@H](Cc1ccccc1)NC(=O)c1cnccn1)B(O)O [Bortezomib] (partner 0.002 µM)", "values": [{"measurement": "relative viability", "setting": "ABC-1; first compound 0.01 µM", "result": 0.331}, {"measurement": "relative viability", "setting": "ABC-1; first compound 0.03162 µM", "result": 0.347}, {"measurement": "relative viability", "setting": "ABC-1; first compound 0.1 µM", "result": 0.336}, {"measurement": "relative viability", "setting": "ABC-1; first compound 0.3162 µM", "result": 0.261}, {"measurement": "relative viability", "setting": "ABC-1; first compound 1 µM", "result": 0.332}, {"measurement": "relative viability", "setting": "COR-L23; first compound 0.01 µM", "result": 1.03}, {"measurement": "relative viability", "setting": "COR-L23; first compound 0.03162 µM", "result": 1}, {"measurement": "relative viability", "setting": "COR-L23; first compound 0.1 µM", "result": 1.09}, {"measurement": "relative viability", "setting": "COR-L23; first compound 0.3162 µM", "result": 0.904}, {"measurement": "relative viability", "setting": "COR-L23; first compound 1 µM", "result": 1.03}, {"measurement": "relative viability", "setting": "ChaGo-K-1; first compound 0.01 µM", "result": 0.64}, {"measurement": "relative viability", "setting": "ChaGo-K-1; first compound 0.03162 µM", "result": 0.915}, {"measurement": "relative viability", "setting": "ChaGo-K-1; first compound 0.1 µM", "result": 0.897}, {"measurement": "relative viability", "setting": "ChaGo-K-1; first compound 0.3162 µM", "result": 1.04}, {"measurement": "relative viability", "setting": "ChaGo-K-1; first compound 1 µM", "result": 0.977}, {"measurement": "relative viability", "setting": "EMC-BAC-2; first compound 0.01 µM", "result": 1.06}, {"measurement": "relative viability", "setting": "EMC-BAC-2; first compound 0.03162 µM", "result": 1.09}, {"measurement": "relative viability", "setting": "EMC-BAC-2; first compound 0.1 µM", "result": 1.15}, {"measurement": "relative viability", "setting": "EMC-BAC-2; first compound 0.3162 µM", "result": 1.11}, {"measurement": "relative viability", "setting": "EMC-BAC-2; first compound 1 µM", "result": 1.02}, {"measurement": "relative viability", "setting": "HARA; first compound 0.01 µM", "result": 1.16}, {"measurement": "relative viability", "setting": "HARA; first compound 0.03162 µM", "result": 1.17}, {"measurement": "relative viability", "setting": "HARA; first compound 0.1 µM", "result": 1.19}, {"measurement": "relative viability", "setting": "HARA; first compound 0.3162 µM", "result": 1.1}, {"measurement": "relative viability", "setting": "HARA; first compound 1 µM", "result": 1.1}, {"measurement": "relative viability", "setting": "HCC-15; first compound 0.01 µM", "result": 0.948}, {"measurement": "relative viability", "setting": "HCC-15; first compound 0.03162 µM", "result": 1.06}, {"measurement": "relative viability", "setting": "HCC-15; first compound 0.1 µM", "result": 1.12}, {"measurement": "relative viability", "setting": "HCC-15; first compound 0.3162 µM", "result": 0.948}, {"measurement": "relative viability", "setting": "HCC-15; first compound 1 µM", "result": 1.04}, {"measurement": "relative viability", "setting": "HCC-366; first compound 0.01 µM", "result": 1.09}, {"measurement": "relative viability", "setting": "HCC-366; first compound 0.03162 µM", "result": 1.09}, {"measurement": "relative viability", "setting": "HCC-366; first compound 0.1 µM", "result": 1.03}, {"measurement": "relative viability", "setting": "HCC-366; first compound 0.3162 µM", "result": 1.06}, {"measurement": "relative viability", "setting": "HCC-366; first compound 1 µM", "result": 1.04}, {"measurement": "relative viability", "setting": "HCC-78; first compound 0.01 µM", "result": 0.544}, {"measurement": "relative viability", "setting": "HCC-78; first compound 0.03162 µM", "result": 0.467}, {"measurement": "relative viability", "setting": "HCC-78; first compound 0.1 µM", "result": 0.566}, {"measurement": "relative viability", "setting": "HCC-78; first compound 0.3162 µM", "result": 0.482}, {"measurement": "relative viability", "setting": "HCC-78; first compound 1 µM", "result": 0.468}, {"measurement": "relative viability", "setting": "HOP-62; first compound 0.01 µM", "result": 0.497}, {"measurement": "relative viability", "setting": "HOP-62; first compound 0.03162 µM", "result": 0.565}, {"measurement": "relative viability", "setting": "HOP-62; first compound 0.1 µM", "result": 0.963}, {"measurement": "relative viability", "setting": "HOP-62; first compound 0.3162 µM", "result": 0.81}, {"measurement": "relative viability", "setting": "HOP-62; first compound 1 µM", "result": 0.723}, {"measurement": "relative viability", "setting": "LC-2-ad; first compound 0.01 µM", "result": 1.15}, {"measurement": "relative viability", "setting": "LC-2-ad; first compound 0.1 µM", "result": 1.09}, {"measurement": "relative viability", "setting": "LC-2-ad; first compound 0.3162 µM", "result": 0.993}, {"measurement": "relative viability", "setting": "LC-2-ad; first compound 1 µM", "result": 1.05}, {"measurement": "relative viability", "setting": "NCI-H1993; first compound 0.01 µM", "result": 1}, {"measurement": "relative viability", "setting": "NCI-H1993; first compound 0.03162 µM", "result": 1.09}, {"measurement": "relative viability", "setting": "NCI-H1993; first compound 0.1 µM", "result": 1.33}, {"measurement": "relative viability", "setting": "NCI-H1993; first compound 0.3162 µM", "result": 1.11}, {"measurement": "relative viability", "setting": "NCI-H1993; first compound 1 µM", "result": 1.07}, {"measurement": "relative viability", "setting": "NCI-H2023; first compound 0.01 µM", "result": 1.04}, {"measurement": "relative viability", "setting": "NCI-H2023; first compound 0.03162 µM", "result": 1.02}, {"measurement": "relative viability", "setting": "NCI-H2023; first compound 0.1 µM", "result": 1.05}, {"measurement": "relative viability", "setting": "NCI-H2023; first compound 0.3162 µM", "result": 0.936}, {"measurement": "relative viability", "setting": "NCI-H2023; first compound 1 µM", "result": 0.907}, {"measurement": "relative viability", "setting": "NCI-H2126; first compound 0.01 µM", "result": 1.14}, {"measurement": "relative viability", "setting": "NCI-H2126; first compound 0.03162 µM", "result": 1.11}, {"measurement": "relative viability", "setting": "NCI-H2126; first compound 0.1 µM", "result": 1.13}, {"measurement": "relative viability", "setting": "NCI-H2126; first compound 0.3162 µM", "result": 1.06}, {"measurement": "relative viability", "setting": "NCI-H2126; first compound 1 µM", "result": 1.14}, {"measurement": "relative viability", "setting": "NCI-H2228; first compound 0.03162 µM", "result": 0.794}, {"measurement": "relative viability", "setting": "NCI-H2228; first compound 0.1 µM", "result": 0.926}, {"measurement": "relative viability", "setting": "NCI-H2228; first compound 0.3162 µM", "result": 1.33}, {"measurement": "relative viability", "setting": "NCI-H2228; first compound 1 µM", "result": 1.14}, {"measurement": "relative viability", "setting": "NCI-H23; first compound 0.01 µM", "result": 1.13}, {"measurement": "relative viability", "setting": "NCI-H23; first compound 0.03162 µM", "result": 1.08}, {"measurement": "relative viability", "setting": "NCI-H23; first compound 0.3162 µM", "result": 1.01}, {"measurement": "relative viability", "setting": "NCI-H23; first compound 1 µM", "result": 0.946}, {"measurement": "relative viability", "setting": "NCI-H2405; first compound 0.01 µM", "result": 1.01}, {"measurement": "relative viability", "setting": "NCI-H2405; first compound 0.03162 µM", "result": 0.941}, {"measurement": "relative viability", "setting": "NCI-H2405; first compound 0.1 µM", "result": 1.03}, {"measurement": "relative viability", "setting": "NCI-H2405; first compound 0.3162 µM", "result": 0.987}, {"measurement": "relative viability", "setting": "NCI-H2405; first compound 1 µM", "result": 0.988}, {"measurement": "relative viability", "setting": "NCI-H838; first compound 0.01 µM", "result": 0.779}, {"measurement": "relative viability", "setting": "NCI-H838; first compound 0.03162 µM", "result": 0.673}, {"measurement": "relative viability", "setting": "NCI-H838; first compound 0.1 µM", "result": 0.805}, {"measurement": "relative viability", "setting": "NCI-H838; first compound 0.3162 µM", "result": 0.813}, {"measurement": "relative viability", "setting": "NCI-H838; first compound 1 µM", "result": 0.908}, {"measurement": "relative viability", "setting": "SK-LU-1; first compound 0.01 µM", "result": 1.15}, {"measurement": "relative viability", "setting": "SK-LU-1; first compound 0.03162 µM", "result": 1.36}, {"measurement": "relative viability", "setting": "SK-LU-1; first compound 0.3162 µM", "result": 1.5}, {"measurement": "relative viability", "setting": "SK-LU-1; first compound 1 µM", "result": 1.17}]}]}
